{"source": "patent US10646565B2", "about": "“Treatment of alzheimer'S disease (AD) with an aluminum salt” (AFFIRIS AG, priority 2014, dated 2020)", "key": {"amyloid deposits": {"system": "amyloid deposits", "assay": "Cerebral amyloid load by immunofluorescence (mAb 3A5) in Tg2576 mice", "format": "in vivo", "details": "6 monthly s.c. injections, sacrificed at 14 months of age"}, "patients with early AD": {"system": "patients with early AD", "assay": "AFF006 clinical trial: MRI volume-based morphometry of hippocampus", "format": "in vivo, human", "details": "2 mg group of patients, FIG. 4", "excerpt": "EMEA and FDA criteria recommend newer techniques, such as MRI, especially atrophy of entorhinal or (para-) hippocampal cortex. With the present invention, PET (Positron emission tomography)-MRI was applied. More specifically, volume of right hippocampus (important for learning and memory of material that is difficult to verbalise) is used according to the present invention as significant AD biomarker for treatment success.\nHippocampus (left and right), and whole lateral ventricle ROIs were delineated on an anatomical MRI template in order to generate the atlas for volumetric measures. The volumes of the hippocampus and lateral ventricles for each subject were determined using a fully-automated method which combines transformations derived from the nonlinear registration of the atlas labels to individual subject scans and subject-specific image information (Collins et al., J. Comput. Assist. Tomogr., 18: 192-205, 1994). Lateral ventricle and hippocampal segmentations that failed post-processing QC review were manually corrected. The total intracranial volume (TIV) was estimated from the brain mask generated during pre-processing and the average TIV (TIVavg) for each subject was determined by averaging the estimated TIV across visits. […]"}, "[1]": {"details": "aluminium oxyhydroxide; cited from earlier work"}}, "note": "Entries after “also recorded” stand apart in the source; their conditions may differ."}
{"substance": "aluminium oxyhydroxide", "values": [{"measurement": "cerebral amyloid load (relative brain area covered by amyloid deposits)", "setting": "amyloid deposits; IF-staining mAb 3A5, FIG. 8, listed as Alum", "result": "did not significantly alter amyloid deposition; also recorded: slight but insignificant reduction in Aβ deposition"}, {"measurement": "cerebral amyloid load (relative brain area covered by amyloid deposits)", "setting": "amyloid deposits; IF-staining mAb 3A5, FIG. 8, listed as aluminium-oxyhydroxide", "result": "without significantly changing cerebral Aβ levels"}, {"measurement": "MRI data (volume of right hippocampus)", "setting": "patients with early AD", "result": "statistically significant disease modifying effect"}, {"measurement": "point of zero charge", "setting": "[1]", "result": "~11", "unit": "pH"}]}
